The values that follow are results of earlier work, collected in patent US7064108B2 (Merck & Co., Inc., priority 2002, dated 2006).

In data set [1] the test system is head lice (Pediculosis capitis). Particulars: single oral 200 ug/kg dose, 26 patients.
Data set [2] has as its system head lice. The settings on record: single oral dose of 100–200 ug/kg.
Data set [3] concerns Onchocerca volvulus.
Data set [4] relates to glutamate-gated chloride ion channels. The settings on record: invertebrate nerve and muscle cells.
For data set [5], the system named is mammalian ligand-gated chloride channels.
The test system of data set [6] is Onchocerca volvulus. The settings on record: after one month; single oral dose approximately 150 ug/kg.
For data set [7] the following is noted: amicrofilaremic population in mass treatment programs.
Data set [8] has as its system head lice. Particulars: after a single topical application.

For `Nc1nc2cccc(-c3ccc(CN4CCS(=O)(=O)CC4)cc3)n2n1` [metabolite], under “metabolite of ivermectin”, the plasma half life entry is “about 3 days”.

Consider Ivermectin, for which the “effect against head lice” value in [1] was “effectiveness”. In addition, in [2], the “effect on head lice infestation” value is “significant, but not absolute, effect”. The “activity against adult form” value in data set [3] (adult form of Onchocerca volvulus) was “not against the adult form”. For the same compound, the “activity against tissue microfilariae” value in data set [3] (tissue microfilariae of Onchocerca volvulus) is recorded as “active”. Moreover, under “in vivo”, the plasma half-life is 15 to 20 h. Further, the “affinity for glutamate-gated chloride ion channels” value in [4] is “high affinity”. Moreover, the “affinity for mammalian ligand-gated chloride channels” value in data set [5] was “low affinity”. The dermal microfilarial density entry in [6] is given as “near zero”. For the same compound, the “overall incidences of adverse experiences” value in [7] is given as 1%. For the same compound, the “effect on head lice” value in [8] is given as “absolute curative effect”.
